Assay results from patent publication US20260365670A1, “EGFR INHIBITORS AND USES THEREOF” (DIZAL (JIANGSU) PHARMACEUTICAL CO., LTD., priority 2022, published 2026).
Read-outs that look alike come from different tables or passages of the source.

Assays:
EGFR L858R/T790M = biological target: T1, EGFR L858R/T790M (Homo sapiens, UniProt P00533, L858R/T790M); experiment: Inhibition of EGFR L858R/T790M biochemical enzymatic activity (HTRF); details: EGFR L858R-T790M, 1 mM ATP, 1 h, room temperature, read-out: IC50 (nM) @L858R-T790M
T1 construct: purchased Carna Bio
How it was run: (§1)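 For IC50 determination by four-parameter logistic fit, EDTA-quenched 1 h room-temperature reactions (1 mM ATP, 1 μM TK Substrate-biotin) were read by HTRF. The 665/615 nm emission ratio after 320 nm excitation served as the activity signal.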

EGFR (C797S L858R) = biological target: T2, EGFR (C797S L858R) (Homo sapiens, UniProt P00533, C797S/L858R); experiment: Inhibition of EGFR (C797S L858R) biochemical enzymatic activity (HTRF); details: EGFR L858-C797S, 1 mM ATP, 1 h, room temperature, read-out: IC50 (nM) @L858-C797S
T2 construct: purchased signalchem
T2 sequence (P00533 25-1210 C797S/L858R): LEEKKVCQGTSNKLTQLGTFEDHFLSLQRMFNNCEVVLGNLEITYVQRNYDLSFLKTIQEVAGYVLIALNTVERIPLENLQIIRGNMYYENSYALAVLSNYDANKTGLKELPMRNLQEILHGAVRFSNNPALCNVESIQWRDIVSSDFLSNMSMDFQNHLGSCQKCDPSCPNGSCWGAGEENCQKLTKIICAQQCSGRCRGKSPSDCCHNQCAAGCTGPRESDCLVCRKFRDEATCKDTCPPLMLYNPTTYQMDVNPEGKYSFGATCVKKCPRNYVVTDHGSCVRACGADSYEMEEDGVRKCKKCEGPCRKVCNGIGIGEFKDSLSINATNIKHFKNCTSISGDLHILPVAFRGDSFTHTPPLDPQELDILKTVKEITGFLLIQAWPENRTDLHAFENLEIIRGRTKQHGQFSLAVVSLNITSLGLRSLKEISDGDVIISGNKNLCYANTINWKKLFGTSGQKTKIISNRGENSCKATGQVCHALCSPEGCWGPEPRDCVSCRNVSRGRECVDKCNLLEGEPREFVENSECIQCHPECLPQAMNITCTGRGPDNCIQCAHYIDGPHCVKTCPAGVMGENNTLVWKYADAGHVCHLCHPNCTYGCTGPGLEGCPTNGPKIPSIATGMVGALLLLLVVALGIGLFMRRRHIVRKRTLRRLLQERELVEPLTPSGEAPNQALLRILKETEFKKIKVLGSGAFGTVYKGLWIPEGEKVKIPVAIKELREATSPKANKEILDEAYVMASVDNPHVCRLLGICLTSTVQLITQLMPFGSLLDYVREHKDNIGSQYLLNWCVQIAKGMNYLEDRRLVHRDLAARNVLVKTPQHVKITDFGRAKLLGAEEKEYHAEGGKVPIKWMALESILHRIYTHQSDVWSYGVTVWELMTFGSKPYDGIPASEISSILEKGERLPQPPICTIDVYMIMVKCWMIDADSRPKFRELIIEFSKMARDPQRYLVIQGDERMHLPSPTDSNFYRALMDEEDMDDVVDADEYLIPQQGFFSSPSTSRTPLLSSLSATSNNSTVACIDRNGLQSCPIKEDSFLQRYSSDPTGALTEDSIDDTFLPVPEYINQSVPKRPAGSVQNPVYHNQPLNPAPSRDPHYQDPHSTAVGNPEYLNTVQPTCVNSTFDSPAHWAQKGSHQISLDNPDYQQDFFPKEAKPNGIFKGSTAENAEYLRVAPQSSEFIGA
How it was run: as §1

EGFR wild type = biological target: T3, EGFR wild type (Homo sapiens, UniProt P00533); experiment: Inhibition of EGFR wild type biochemical enzymatic activity (HTRF); details: EGFR WT, 1 mM ATP, 1 h, room temperature, read-out: IC50 (nM) @WT
T3 construct: purchased Carna Bio
T3 sequence (P00533 25-1210): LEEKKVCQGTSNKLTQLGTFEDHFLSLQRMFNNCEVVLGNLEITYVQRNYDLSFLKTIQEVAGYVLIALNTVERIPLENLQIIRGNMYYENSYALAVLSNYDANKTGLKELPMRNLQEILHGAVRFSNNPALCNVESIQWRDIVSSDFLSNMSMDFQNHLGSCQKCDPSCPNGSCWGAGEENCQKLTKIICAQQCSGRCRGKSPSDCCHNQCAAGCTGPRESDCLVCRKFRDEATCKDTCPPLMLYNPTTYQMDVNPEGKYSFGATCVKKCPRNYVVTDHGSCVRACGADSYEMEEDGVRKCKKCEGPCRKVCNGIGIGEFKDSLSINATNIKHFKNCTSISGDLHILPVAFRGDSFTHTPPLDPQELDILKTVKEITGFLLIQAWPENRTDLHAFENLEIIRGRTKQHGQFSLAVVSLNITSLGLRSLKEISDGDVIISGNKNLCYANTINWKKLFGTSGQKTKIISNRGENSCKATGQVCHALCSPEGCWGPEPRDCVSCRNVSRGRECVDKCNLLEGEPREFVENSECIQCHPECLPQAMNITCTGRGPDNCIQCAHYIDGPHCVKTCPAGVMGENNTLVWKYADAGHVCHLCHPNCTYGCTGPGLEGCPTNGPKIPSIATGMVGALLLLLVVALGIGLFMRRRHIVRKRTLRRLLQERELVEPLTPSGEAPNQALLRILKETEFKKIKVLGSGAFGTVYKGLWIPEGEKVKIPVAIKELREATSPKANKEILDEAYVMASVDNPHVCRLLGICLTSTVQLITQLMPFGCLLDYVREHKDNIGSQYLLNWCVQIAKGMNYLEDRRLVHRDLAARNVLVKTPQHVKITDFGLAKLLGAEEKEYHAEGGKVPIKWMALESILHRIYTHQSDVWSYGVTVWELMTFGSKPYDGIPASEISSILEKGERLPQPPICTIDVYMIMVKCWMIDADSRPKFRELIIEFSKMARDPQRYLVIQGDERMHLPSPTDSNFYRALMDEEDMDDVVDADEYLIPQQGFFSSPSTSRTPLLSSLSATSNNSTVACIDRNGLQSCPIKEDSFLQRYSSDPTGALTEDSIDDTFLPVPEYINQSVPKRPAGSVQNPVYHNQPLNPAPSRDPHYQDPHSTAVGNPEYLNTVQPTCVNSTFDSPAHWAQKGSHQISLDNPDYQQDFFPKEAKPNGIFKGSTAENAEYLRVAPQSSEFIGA
How it was run: as §1

EGFR Exon19Del = biological target: T4, EGFR Exon19Del (Homo sapiens, UniProt P00533, DEL746-750); experiment: Inhibition of EGFR Exon19Del biochemical enzymatic activity (HTRF); details: EGFR Del19, 1 mM ATP, 1 h, room temperature, read-out: IC50 @Del19
T4 construct: purchased Carna Bio
T4 sequence (P00533 with tags, fused parts or gaps DEL746-750 limits assumed): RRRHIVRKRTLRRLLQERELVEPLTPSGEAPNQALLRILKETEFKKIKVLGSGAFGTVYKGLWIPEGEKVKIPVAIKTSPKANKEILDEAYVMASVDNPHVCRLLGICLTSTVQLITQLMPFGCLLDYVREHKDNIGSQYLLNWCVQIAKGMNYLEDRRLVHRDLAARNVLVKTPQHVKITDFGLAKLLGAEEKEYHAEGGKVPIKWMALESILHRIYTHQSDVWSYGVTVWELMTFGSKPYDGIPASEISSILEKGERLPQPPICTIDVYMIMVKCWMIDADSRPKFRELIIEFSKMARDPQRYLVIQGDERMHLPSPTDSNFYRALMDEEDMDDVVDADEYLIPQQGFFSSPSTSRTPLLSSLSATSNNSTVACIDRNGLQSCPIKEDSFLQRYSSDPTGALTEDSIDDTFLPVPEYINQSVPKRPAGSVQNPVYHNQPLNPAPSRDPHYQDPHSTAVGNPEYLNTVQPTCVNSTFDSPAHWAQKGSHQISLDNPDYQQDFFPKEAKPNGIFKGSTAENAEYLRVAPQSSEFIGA
How it was run: as §1

EGFR (d746-750 C797S) = biological target: T5, EGFR (d746-750 C797S) (Homo sapiens, UniProt P00533, C797S/DEL746-750); experiment: Inhibition of EGFR (d746-750 C797S) biochemical enzymatic activity (HTRF); details: EGFR Del19-C797S, 1 mM ATP, 1 h, room temperature, read-out: IC50 (nM) @Del19-C797S
T5 construct: purchased signalchem
How it was run: as §1

[1] = system: Ba/F3 cells expressing EGFR mutations; experiment: Cell proliferation assay, Ba/F3 cells expressing EGFR mutations (CellTiter-Glo, 72 hours); assay type: cell-based; details: CellTiter-Glo
How it was run: (§2)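 Ba/F3 cells carrying EGFR mutants (5000/well) or PC-9 cells (500/well) in RPMI1640 were dosed with compound series after overnight attachment and grown 72 h. Viability read by CellTiter-Glo, with day-0 counts subtracted; GI50 from curve fits of % proliferation versus DMSO control.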

[2] = biological target: T6, EGFR[T790M/C797S/d746-750] (Homo sapiens, UniProt P00533, C797S/DEL746-750/T790M); experiment: Inhibition of EGFR[T790M/C797S/d746-750] biochemical enzymatic activity (HTRF); details: EGFR T790M-C797S-Del19, 1 mM ATP, 1 h, room temperature, read-out: IC50 (nM) @T790M - C797S - Del19
T6 construct: purchased Carna Bio
How it was run: as §1

EGFR[T790M/C797S/L858R] = biological target: T7, EGFR[T790M/C797S/L858R] (Homo sapiens, UniProt P00533, C797S/L858R/T790M); experiment: Inhibition of EGFR[T790M/C797S/L858R] biochemical enzymatic activity (HTRF); details: EGFR T790M-C797S-L858R, 1 mM ATP, 1 h, room temperature, read-out: IC50 (nM) @T790M- C797S - L858R
T7 construct: purchased Carna Bio
T7 sequence (P00533 25-1210 T790M/C797S/L858R): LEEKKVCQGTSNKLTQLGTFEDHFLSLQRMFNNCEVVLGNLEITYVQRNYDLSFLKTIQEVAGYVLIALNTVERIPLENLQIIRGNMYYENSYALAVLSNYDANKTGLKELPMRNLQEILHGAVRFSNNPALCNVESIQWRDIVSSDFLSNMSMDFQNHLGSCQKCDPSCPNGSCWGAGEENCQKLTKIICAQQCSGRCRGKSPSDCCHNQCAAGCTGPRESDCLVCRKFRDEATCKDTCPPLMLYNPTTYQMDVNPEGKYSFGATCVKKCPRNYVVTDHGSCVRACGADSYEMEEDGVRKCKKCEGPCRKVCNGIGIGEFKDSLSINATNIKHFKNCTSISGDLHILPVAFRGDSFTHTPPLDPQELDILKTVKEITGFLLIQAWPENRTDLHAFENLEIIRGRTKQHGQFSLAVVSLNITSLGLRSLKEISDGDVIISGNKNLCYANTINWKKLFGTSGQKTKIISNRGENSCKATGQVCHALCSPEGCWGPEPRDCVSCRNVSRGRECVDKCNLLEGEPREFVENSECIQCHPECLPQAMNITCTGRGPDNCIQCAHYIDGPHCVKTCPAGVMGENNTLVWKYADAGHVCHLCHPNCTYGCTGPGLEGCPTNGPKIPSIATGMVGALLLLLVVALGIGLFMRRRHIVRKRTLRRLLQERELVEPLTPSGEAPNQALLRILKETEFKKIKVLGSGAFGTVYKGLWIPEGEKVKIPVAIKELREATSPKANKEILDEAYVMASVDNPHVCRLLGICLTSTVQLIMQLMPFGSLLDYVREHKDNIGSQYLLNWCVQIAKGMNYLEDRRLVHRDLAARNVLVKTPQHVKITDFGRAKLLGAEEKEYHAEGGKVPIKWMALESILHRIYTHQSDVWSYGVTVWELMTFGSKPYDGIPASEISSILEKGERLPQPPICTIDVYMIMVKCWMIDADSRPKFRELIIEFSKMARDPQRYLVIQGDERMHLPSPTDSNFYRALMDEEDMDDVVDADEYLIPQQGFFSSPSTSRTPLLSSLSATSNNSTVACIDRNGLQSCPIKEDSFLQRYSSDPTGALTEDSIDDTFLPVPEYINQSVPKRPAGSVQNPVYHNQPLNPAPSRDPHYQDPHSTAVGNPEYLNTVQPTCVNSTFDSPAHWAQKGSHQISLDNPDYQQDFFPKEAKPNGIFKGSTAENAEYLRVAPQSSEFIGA
How it was run: as §1

EGFR L858R = biological target: T8, EGFR L858R (Homo sapiens, UniProt P00533, L858R); experiment: Inhibition of EGFR L858R biochemical enzymatic activity (HTRF); details: 1 mM ATP, 1 h, room temperature, read-out: IC50 (nM) @L858R
T8 construct: purchased Carna Bio
How it was run: as §1

EGFR Exon19Del/T790M = biological target: T9, EGFR Exon19Del/T790M (Homo sapiens, UniProt P00533, DEL746-750/T790M); experiment: Inhibition of EGFR Exon19Del/T790M biochemical enzymatic activity (HTRF); details: EGFR Del19-T790M, 1 mM ATP, 1 h, room temperature, read-out: IC50 (nM) @Del19-T790M
T9 construct: purchased Carna Bio
T9 sequence (P00533 with tags, fused parts or gaps DEL746-750/T790M limits assumed): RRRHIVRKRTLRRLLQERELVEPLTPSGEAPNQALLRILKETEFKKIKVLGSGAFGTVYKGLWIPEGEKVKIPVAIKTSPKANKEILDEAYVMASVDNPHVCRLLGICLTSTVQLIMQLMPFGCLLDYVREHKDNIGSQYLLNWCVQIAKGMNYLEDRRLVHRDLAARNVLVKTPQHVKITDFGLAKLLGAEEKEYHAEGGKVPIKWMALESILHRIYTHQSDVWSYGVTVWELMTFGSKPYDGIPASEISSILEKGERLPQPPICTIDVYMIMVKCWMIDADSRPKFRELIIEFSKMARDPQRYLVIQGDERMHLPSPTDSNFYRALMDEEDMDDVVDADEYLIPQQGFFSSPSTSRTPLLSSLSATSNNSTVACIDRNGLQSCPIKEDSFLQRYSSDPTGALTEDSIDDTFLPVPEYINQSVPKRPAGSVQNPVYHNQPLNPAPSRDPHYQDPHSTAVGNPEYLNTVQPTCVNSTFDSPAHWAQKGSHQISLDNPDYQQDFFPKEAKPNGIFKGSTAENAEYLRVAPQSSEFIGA
How it was run: as §1

A-431 = experiment: Cell proliferation GI50, A-431 cells (Table 6); assay type: cell-based
PC-9 = experiment: Cell proliferation assay, PC-9 cells (CellTiter-Glo, 72 hours); assay type: cell-based; details: PC9 cells, CellTiter-Glo, read-out: PC9 GI50
How it was run: as §2

[3] = Mus musculus, BaF3, 72 h, BaF3 cells, EGFR DEL19-C797S, read-out: DEL19-C797S/BaF3 GI50
[4] = Mus musculus, BaF3, 72 h, BaF3 cells, EGFR DEL19-T790-C797S, read-out: DEL19-T790-C797S/BaF3 GI50
[5] = Mus musculus, BaF3, 72 h, BaF3 cells, EGFR L858R, read-out: L858R/BaF3 GI50
[6] = Mus musculus, BaF3, 72 h, BaF3 cells, EGFR L858R-C797S, read-out: L858R-C797S/BaF3 GI50
[7] = Mus musculus, BaF3, 72 h, BaF3 cells, EGFR L858R-T790-C797S, read-out: L858R-T790-C797S/BaF3 GI50
[8] = Mus musculus, BaF3, 72 h, BaF3 cells, EGFR L858R-T790M, read-out: L858R-T790M/BaF3 GI50
[9] = Mus musculus, BaF3, 72 h, EGFR DEL19-T790M, read-out: DEL19-T790M GI50
[10] = Homo sapiens, A-431, A-431 cells

| Structure (SMILES) | IC50 (EGFR L858R/T790M) [nM] | IC50 (EGFR (C797S L858R)) [nM] | IC50 (EGFR wild type) [nM] | IC50 (EGFR Exon19Del) [nM] | IC50 (EGFR (d746-750 C797S)) [nM] | IC50 [2] [nM] | IC50 (EGFR[T790M/C797S/L858R]) [nM] | IC50 (EGFR L858R) [nM] | IC50 (EGFR Exon19Del/T790M) [nM] | GI50 [1, 3] [nM] | GI50 [1, 4] [nM] | GI50 [1, 5] [nM] | GI50 [1, 6] [nM] | GI50 [1, 7] [nM] | GI50 [1, 8] [nM] | GI50 [1, 9] [nM] | GI50 (A-431; [10]) [nM] | GI50 (PC-9; Homo sapiens, PC-9, 72 h) [nM] | also measured |
| --- | --- | --- | --- | --- | --- | --- | --- | --- | --- | --- | --- | --- | --- | --- | --- | --- | --- | --- | --- |
| Cn1ncc2c1OCCN1CC3CCC(C3)(C1)n1c(nc3ccc(N4CCC(N5CC(F)C5)C4)cc31)NC(=O)c1cc-2c(=O)n(C)c1 (single isomer, unassigned) [Example A94B2, 5-[3-(3-Fluoroazetidin-1-yl)pyrrolidin-1-yl]-15,21-dimethyl-23-oxa-2,9,11,15,20,21,26-heptaazaheptacyclo[24.4.1.1^{1,28}.1^{13,17}.0^{2,10}.0^{3,8}.0^{18,22}]tritriaconta-3,5,7,9,13,17(33),18(22),19-octaene-12,16-dione] | 9.7 | 30 | 289 | 8.9 | 4.5 | 5.2 | 9.7 | 45 | 6.3 |  |  |  |  |  |  |  |  |  | GI50 ([1]; BaF3 cells, EGFR DEL19-C797S, read-out: DEL19-C797S/BaF3 GI50): 0.77 nM; GI50 ([1]; BaF3 cells, EGFR DEL19-T790-C797S, read-out: DEL19-T790-C797S/BaF3 GI50): 8.5 nM; GI50 ([1]; BaF3 cells, EGFR L858R, read-out: L858R/BaF3 GI50): 3.3 nM; GI50 ([1]; BaF3 cells, EGFR L858R-C797S, read-out: L858R-C797S/BaF3 GI50): 7.2 nM; GI50 ([1]; BaF3 cells, EGFR L858R-T790-C797S, read-out: L858R-T790-C797S/BaF3 GI50): 5.4 nM; GI50 ([1]; BaF3 cells, EGFR L858R-T790M, read-out: L858R-T790M/BaF3 GI50): 14 nM; GI50 ([1]; EGFR DEL19-T790M, read-out: DEL19-T790M GI50): 5 nM; GI50 (A-431; A-431 cells): 1980 nM; GI50 (PC-9): 30 nM |
| CN1CCN(c2ccc3nc4n(c3c2)C23CCC(CC2)CN(CCOc2c(cnn2C)-c2cc(cn(C)c2=O)C(=O)N4)C3)CC1 [Example A75, 15,21-Dimethyl-5-(4-methylpiperazin-1-yl)-23-oxa-2,9,11,15,20,21,26-heptaazaheptacyclo[26.2.2.1^{1,26}.1^{13,17}.0^{2,10}.0^{3,8}.0^{18,22}]tetratriaconta-3,5,7,9,13,17(34),18(22),19-octaene-12,16-dione] | 6 | 35 | 672 | 3.3 | 2.8 | 3.4 | 8 | 44 | 3.8 | 2.5 | 27 | 21 | 21 | 35 | 69 | 20 | 5420 | 44 |  |
| C[C@@H]1CCCOc2c(cnn2C)-c2cc(cn(C)c2=O)C(=O)Nc2nc3ccc(N4CCN(C)CC4)cc3n2C1 [Example A25, (11R)-5,11,26-trimethyl-16-(4-methylpiperazin-1-yl)-7-oxa-4,5,13,20,22,26-hexaazapentacyclo[22.3.1.0^{2,6}.0^{13,21}.0^{14,19}]octacosa-1(28),2(6),3,14,16,18,20,24-octaene-23,27-dione] | 2 | 6 | 323 | 1.6 | 1 | 1.6 | 1.6 | 24 | 1.6 | 1.4 | 13 | 2.4 | 9.3 | 5.6 | 16 | 9.2 | 486 | 12 |  |
